What is called melting point is the temperature of the solid-liquid transition. On to `CCCCn1ncc(/C=C(\Cc2cc3c(cc2OC)OCO3)C(=O)O)c1-c1ccc(OC)cc1OCc1ccccc1C(=O)O` [Example 1, (E)-alpha-[[1-n-Butyl-5-[2-[(2-carboxyphenyl)methoxy]-4-methoxyphenyl]-1H-pyrazol-4-yl]methylene]-6-methoxy-1,3-benzodioxole-5-propanoic Acid], for which the melting point was 213 to 214 °C.
The compound `CCCCn1cc(/C=C(\Cc2cc3c(cc2OC)OCO3)C(=O)O)c(-c2ccc(OC)cc2OCc2ccccc2C(=O)O)n1` [Example 2, (E)-alpha-[[1-n-Butyl-3-[2-[(2-carboxyphenyl)methoxy]-4-methoxyphenyl]-1H-pyrazol-4-yl]methylene]-6-methoxy-1,3-benzodioxole-5-propanoic Acid] returned a melting point of 226 to 227 °C.

Source of the values: patent US6545031B1, “Endothelin receptor antagonists” (SmithKline Beecham Corporation, priority 1995, dated 2003).
